These compounds were tested against T1, Tyrosine-protein phosphatase non-receptor type 11 (Homo sapiens, UniProt Q06124) (assay: Inhibition of human recombinant GST-fused SHP2 using p-nitrophenyl phosphate as substrate).
T1 sequence (Q06124 whole entry): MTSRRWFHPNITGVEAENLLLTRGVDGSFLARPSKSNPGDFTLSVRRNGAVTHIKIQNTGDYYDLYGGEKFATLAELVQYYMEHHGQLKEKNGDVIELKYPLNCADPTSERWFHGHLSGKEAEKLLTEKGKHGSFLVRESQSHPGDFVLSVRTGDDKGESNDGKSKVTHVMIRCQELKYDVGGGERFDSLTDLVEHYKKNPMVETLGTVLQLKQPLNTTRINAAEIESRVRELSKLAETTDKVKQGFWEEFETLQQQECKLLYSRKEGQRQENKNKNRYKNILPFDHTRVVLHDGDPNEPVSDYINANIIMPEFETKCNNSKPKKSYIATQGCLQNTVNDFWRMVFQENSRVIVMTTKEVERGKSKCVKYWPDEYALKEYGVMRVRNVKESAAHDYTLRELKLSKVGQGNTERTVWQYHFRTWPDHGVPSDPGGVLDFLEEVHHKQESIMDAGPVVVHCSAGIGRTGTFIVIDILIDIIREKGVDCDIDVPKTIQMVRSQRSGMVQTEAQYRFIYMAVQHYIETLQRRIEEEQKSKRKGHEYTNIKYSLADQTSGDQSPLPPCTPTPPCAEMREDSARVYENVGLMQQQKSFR

Compound | Ki [µM]
O=C1N/C(=N\c2nccs2)S/C1=C/c1ccc([N+](=O)[O-])cc1 | 474
COc1cc(/C=C2/S/C(=N/c3nc(C45CC6CC(CC(C6)C4)C5)cs3)NC2=O)ccc1O | 12.3
COc1cc(/C=C2/S/C(=N/c3nc4ccccc4s3)NC2=O)cc(OC)c1O | 18.1
COc1cc(/C=C2/S/C(=N/c3nc(-c4ccccc4)cs3)NC2=O)ccc1O | 103
O=C1N/C(=N\c2nc3ccccc3s2)S/C1=C/c1cccc([N+](=O)[O-])c1 | 28.7
COc1cc(/C=C2/S/C(=N\c3nsc4ccccc34)NC2=O)ccc1O | 90.8

Further compounds by falling Ki, results first:

Ki [µM] | Compound
1090 | O=C1N/C(=N\c2nccs2)S/C1=C/c1cccc(Cl)c1
22.8 | COc1ccc(/C=C2/S/C(=N\c3nsc4ccccc34)NC2=O)cc1
12.9 | COc1cc(/C=C2/S/C(=N/c3nc4ccc([N+](=O)[O-])cc4s3)NC2=O)cc(OC)c1O
11.7 | COc1ccc(/C=C2/S/C(=N/c3nccs3)NC2=O)cc1

— ChEMBL document CHEMBL1139429, “2-Thiazolylimino/heteroarylimino-5-arylidene-4-thiazolidinones as new agents with SHP-2 inhibitory action” (J Med Chem, 2008)
